Publication PMC4357015, “Structure, Function and Inhibition of the Phosphoethanolamine Methyltransferases of the Human Malaria Parasites Plasmodium vivax and Plasmodium knowlesi” (Scientific Reports, 2015)

Key:
PvPMT [1] = target: T1, PvPMT (Plasmodium vivax, UniProt A5K867); assay: kinetic parameters of PvPMT, radiometric assay; assay type: biochemical; details: varied substrate, other constant (SAM 1.5 mM or P-Etn 2.0 mM)
T1 sequence (A5K867 1-264): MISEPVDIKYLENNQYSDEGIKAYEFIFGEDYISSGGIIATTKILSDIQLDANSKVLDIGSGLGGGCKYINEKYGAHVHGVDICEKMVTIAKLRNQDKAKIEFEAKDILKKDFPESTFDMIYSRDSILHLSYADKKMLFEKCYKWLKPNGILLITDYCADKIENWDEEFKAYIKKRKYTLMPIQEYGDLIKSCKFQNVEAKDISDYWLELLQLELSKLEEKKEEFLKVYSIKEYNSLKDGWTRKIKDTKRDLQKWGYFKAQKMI
Description: (§1) Figure 2 Analysis of kinetic parameters of P.vivax (top panel) and P. knowlesi PMT enzymes (bottom panel). The Km values for phosphoethanolamine (P-Etn) was determined under standard assay conditions with varying concentrations of P-Eth (0–800 μM) and at constant S-adenosylmethionine (SAM) concentration of 1.5 mM. The Km values for SAM were determined under standard assay conditions with varying concentrations of SAM (0–600 μM) and at constant P-Etn concentration of 2.0 mM. All data were fitted to the Michaelis-Menten equation, v = (kcat [Et][S])/(Km + [S]) using Graph pad software.
(§2) For enzyme kinetics studies recombinant histidine-tagged proteins were expressed using 1 mM IPTG for 4 h, purified using Ni-affinity purification and dialyzed. As expected, purified proteins migrated in SDS-PAGE gels at approximately 31 kDa. The purified proteins were stored in HEPES-KOH buffer (pH 7.4) at 4°C and were assayed within a month of purification. During this time, the integrity of the protein was assessed by SDS-PAGE. The kinetic properties of enzymes were assessed using radiometric assay wherein incorporation of radioactive labeled methyl donor (100nCi [methyl-^14C] SAM, Perkin elmer NEC363010UC) or (200nCi [methyl-^3H] SAM, Perkin Elmer NET155H250UC) was measured. The enzymatic assay conditions were carried out in 100 μl volume containing 0.1 M Hepes, KOH (pH8.6), 2 mM Na2EDTA and10% glycerol. For NSC158011 related studies, 10% DMSO was added to the reaction mixture. Purified enzyme (322 nM) was used in each reaction and the reactions were incubated at 37°C for 30 minutes, thereafter the reaction was terminated using 1 ml cold water. Afterwards, the product was purified by batch purification using AG (H+ resin) (Biorad # 142-1451) using the protocol provided by the manufacturer. The product was eluted from resin using 1.5 ml of 0.1 N HCl and total radioactivity was measured using the scintillation cocktail (Biosafe II).
(§3) To determine the Km value for P-Eth, enzymatic reactions were carried out with 0-0.8 mM of P-Eth at constant 1.5 mM SAM. Similarly Km value for SAM was carried with 0–0.6 mM SAM at constant 2 mM P-Ethanolamine (P-Etn). The inhibition of PvPMT and PkPMT by AQ, CQ and NSC158011were also examined using the same radiometric PMT transmethylation assay. Enzyme activity was evaluated at 0, 100, 500 and 1000 μM of the inhibitor at a fixed concentration of P-Eth (2 mM) and SAM (1.5 mM). To calculate IC50 the data was fitted to non-linear regression analysis in the following equation Y = 100/(1 + ([X]/IC50)), where Y is % enzyme activity and X is inhibitor concentration using Graph pad software.

PkPMT [2] = target: T2, PkPMT (Plasmodium knowlesi, UniProt A0A384KJX3); assay: kinetic parameters of PkPMT, radiometric assay; assay type: biochemical; details: varied substrate, other constant (SAM 1.5 mM or P-Etn 2.0 mM)
T2 sequence (A0A384KJX3 1-264): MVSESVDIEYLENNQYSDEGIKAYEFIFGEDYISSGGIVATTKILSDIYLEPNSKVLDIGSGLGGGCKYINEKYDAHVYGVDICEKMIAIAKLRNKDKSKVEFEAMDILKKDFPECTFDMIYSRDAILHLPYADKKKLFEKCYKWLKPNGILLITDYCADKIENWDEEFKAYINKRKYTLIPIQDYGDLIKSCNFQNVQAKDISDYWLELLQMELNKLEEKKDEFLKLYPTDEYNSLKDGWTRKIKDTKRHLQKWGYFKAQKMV
Description: as §1, §2, §3

PvPMT [3] = target: T1, PvPMT; assay: radiometric PMT transmethylation assay, inhibition of PvPMT; assay type: biochemical
Description: (§4) Figure 3 Amodiaquine (AQ) and NSC158011 inhibit the activity of PvPMT and PkPMT. Enzyme inhibition assays with different concentrations of Amodiaquine (AQ), NSC158011 and Chloroquine (CQ) were carried out at constant P-Etn (2 mM) and SAM (1.5 mM) concentrations. The activity in the absence of any drug was taken as 100% and % enzyme activity was calculated in the presence of different drug concentrations (100, 500, 1000 μM). To determine the concentration that results in 50% inhibition of enzyme activity (IC50), the data were fitted to a non-linear regression analysis in the following equation Y = 100/(1 + ([X]/IC50)), where Y is % enzyme activity and X is drug concentration using Graph pad software.
(§5) For enzyme kinetics studies recombinant histidine-tagged proteins were expressed using 1 mM IPTG for 4 h, purified using Ni-affinity purification and dialyzed. As expected, purified proteins migrated in SDS-PAGE gels at approximately 31 kDa. The purified proteins were stored in HEPES-KOH buffer (pH 7.4) at 4°C and were assayed within a month of purification. During this time, the integrity of the protein was assessed by SDS-PAGE. The kinetic properties of enzymes were assessed using radiometric assay wherein incorporation of radioactive labeled methyl donor (100nCi [methyl-^14C] SAM, Perkin elmer NEC363010UC) or (200nCi [methyl-^3H] SAM, Perkin Elmer NET155H250UC) was measured. […]

PkPMT [4] = target: T2, PkPMT; assay: radiometric PMT transmethylation assay, inhibition of PkPMT; assay type: biochemical
Description: as §4, §5

[5] = substrate: C[S+](CC[C@H](N)C(=O)[O-])C[C@H]1O[C@@H](n2cnc3c(N)ncnc32)[C@H](O)[C@@H]1O; assay: kinetic parameters of PkPMT, radiometric assay; assay type: biochemical, Plasmodium knowlesi; details: other: PkPMT; varied substrate, other constant (SAM 1.5 mM or P-Etn 2.0 mM); 37.0 °C
Description: as §1, §2
(§6) To determine the Km value for P-Eth, enzymatic reactions were carried out with 0-0.8 mM of P-Eth at constant 1.5 mM SAM. […]

[6] = substrate: C[S+](CC[C@H](N)C(=O)[O-])C[C@H]1O[C@@H](n2cnc3c(N)ncnc32)[C@H](O)[C@@H]1O; assay: kinetic parameters of PvPMT, radiometric assay; assay type: biochemical, Plasmodium vivax; details: other: PvPMT; varied substrate, other constant (SAM 1.5 mM or P-Etn 2.0 mM); 37.0 °C
Description: as §1, §2, §6

Molecule: C[S+](CC[C@H](N)C(=O)[O-])C[C@H]1O[C@@H](n2cnc3c(N)ncnc32)[C@H](O)[C@@H]1O (stereo partly shown) [SAM, S-adenosylmethionine]
- Vmax (PvPMT [1]): 12.62 ± 0.95 nmolmin^−1 mg^−1Protein
- Vmax (PkPMT [2]): 119.7 ± 15.41 nmolmin^−1 mg^−1Protein

Molecule: NCCOP(=O)(O)O [P-Etn, phosphoethanolamine]
- Kcat (PvPMT [1]): 0.00083 ± 0.00017 s⁻¹
- Km (PvPMT [1]): 210 ± 70 µM
- Vmax (PvPMT [1]): 18.67 ± 2.93 nmolmin^−1 mg^−1Protein
- Kcat (PkPMT [2]): 0.00433 ± 0.00033 s⁻¹
- Km (PkPMT [2]): 100 ± 30 µM
- Vmax (PkPMT [2]): 86.01 ± 8.35 nmolmin^−1 mg^−1Protein

Molecule: CCN(CC)CCCC(C)Nc1ccnc2cc(Cl)ccc12 (stereo not shown) [CQ, chloroquine]
- IC50 (PvPMT [3]): 146 µM
- IC50 (PkPMT [4]): 987 µM

B1: PkPMT (Plasmodium knowlesi strain H) (protein)
chain: T2 sequence (A0A384KJX3 1-264)
- Km [5]: 270 ± 90 µM
- kcat [5]: 0.00617 ± 0.0005 s⁻¹
- kcat/Km [5]: 22.8 M⁻¹ s⁻¹

B2: PvPMT (Plasmodium vivax Sal-1) (protein)
chain: T1 sequence (A5K867 1-264)
- Km [6]: 230 ± 70 µM
- kcat [6]: 0.000667 ± 0.000333 s⁻¹
- kcat/Km [6]: 2.83 M⁻¹ s⁻¹
